Values after ≈ are worked out from the molar mass of the structure shown. Active and inactive are the calls of the source. The rule behind the calls is not given here. Where a SMILES comes first, the peptide text is derived from it. The star is where a group is joined. Lauroyl = CCCCCCCCCCCC(=O)*; Decanoyl = CCCCCCCCCC(=O)*; Spermine = NCCCNCCCCNCCCN*
Columns and labels:
Staphylococcus aureus [1] = assay: Synergistic antibacterial activity against MDR-methicillin-resistant Staphylococcus aureus ATCC BAA-44 assessed as fractional inhibitory concentration index in presence of neomycin by checkerboard assay; format: functional
[2] = biological target: Bacterial 70S ribosome (Bacteria) (UniProt P0A7V0+P60723+P0AG67+P0A7R5+P0A7R9+P0A7S3+P0A7S9+P0AG59+P0ADZ4+P0A7T3+P0AG63+P0A7T7+P0A7U3+P0A7U7+P68679+P0A7V3+P0A7V8+P0A7W1+P02358+P02359+P0A7W7+P0A7X3+P0A7J3+P0A7J7+P0AA10+P0ADY3+P02413+P0ADY7+P0AG44+P0C018+P0A7K6+P0A7L0+P0A7L3+P0AG48+P61175+P0ADZ0+P60624+P68919+P0A7L8+P0A7M2+P0A7M6+P60422+P0AG51+P0A7N1+P0A7M9+P0A7N4+P0A7N9+P0A7P5+P0A7Q1+Q2EEQ2+P0A7Q6+P60438+P62399+P0AG55+P0A7K2); assay: Inhibition of 70S ribosome-mediated protein synthesis in Escherichia coli at 5XMIC incubated for 1 hr by renilla luciferase based luminescence assay; format: subcellular
Bacterial 70S ribosome = assay: Binding affinity to Escherichia coli MRE600 70S ribosome assessed as inhibition constant preincubated for 90 mins followed by incubation with Rho-C12-PR-Spn for 90 mins by competitive fluorescence binding assay; format: subcellular
Staphylococcus aureus [3] = assay: Synergistic antibacterial activity against MDR-methicillin-resistant Staphylococcus aureus ATCC BAA-44 assessed as fold change in neomycin MIC by checkerboard assay; format: functional
Staphylococcus aureus [4] = assay: Additive antibacterial activity against MDR-methicillin-resistant Staphylococcus aureus ATCC BAA-44 assessed as gentamicin MIC by checkerboard assay; format: functional
[5] = Acute toxicity in BALB/c mouse assessed as effect on locomotor activity at 10 mg/kg, ip measured for 7 days; format: organism-based; details: in vivo, 168 h, time 7 day
Staphylococcus aureus [6] = assay: Additive antibacterial activity against MDR-methicillin-resistant Staphylococcus aureus ATCC BAA-44 assessed as fold change in tetracycline MIC by checkerboard assay; format: functional
Pseudomonas aeruginosa = assay: Antibacterial activity against Pseudomonas aeruginosa ATCC BAA-427 assessed as reduction in bacterial growth measured after 18 hrs by broth microdilution method; format: functional
Acinetobacter baumannii = assay: Antibacterial activity against Acinetobacter baumannii i ATCC 19606 assessed as reduction in bacterial growth measured after 18 hrs by broth microdilution method; format: functional
Staphylococcus aureus [7] = assay: Antibacterial activity against Staphylococcus aureus ATCC 25923 assessed as reduction in bacterial growth measured after 18 hrs by broth microdilution method; format: functional
[8] = Cytotoxicity against human THP-1 cells assessed as cell viability at 100 uM by MTT assay; format: toxicity, cell-based; details: read-out: Activity
Staphylococcus aureus [9] = assay: Additive antibacterial activity against MDR-methicillin-resistant Staphylococcus aureus ATCC BAA-44 assessed as fractional inhibitory concentration index in presence of tetracycline by checkerboard assay; format: functional
Staphylococcus aureus [10] = assay: Additive antibacterial activity against MDR-methicillin-resistant Staphylococcus aureus ATCC BAA-44 assessed as fold change in rifampicin MIC by checkerboard assay; format: functional
Cell membrane [11] = assay: Disruption of bacterial cell membrane in Escherichia coli ATCC 25922 assessed as proportion of bacteria with intact cell membrane at 1X MIC incubated for 1 hr by PI staining based flow cytometric analysis (reference value: 99.3%); format: subcellular
Escherichia coli [12] = assay: Antibacterial activity against Escherichia coli ATCC 25922 assessed as reduction in bacterial growth measured after 18 hrs in presence of 10% v/v human serum in MHB by broth microdilution method; format: functional; details: ATCC 25922, Serum
Staphylococcus aureus [13] = assay: Synergistic antibacterial activity against MDR-methicillin-resistant Staphylococcus aureus ATCC BAA-44 assessed as fractional inhibitory concentration index in presence of chloramphenicol by checkerboard assay; format: functional
[14] = test system: Staphylococcus epidermidis; assay: Antibacterial activity against methicillin-resistant Staphylococcus epidermidis ATCC 51625 assessed as reduction in bacterial growth measured after 18 hrs by broth microdilution method; format: functional
Staphylococcus aureus [15] = assay: Synergistic antibacterial activity against MDR-methicillin-resistant Staphylococcus aureus ATCC BAA-44 assessed as fractional inhibitory concentration index in presence of ampicillin by checkerboard assay; format: functional
[16] = Cytotoxicity against human THP-1 cells assessed as cell viability at 50 uM by MTT assay; format: toxicity, cell-based; details: read-out: Activity
Cell membrane [17] = assay: Disruption of bacterial cell membrane in Escherichia coli ATCC 25922 assessed as proportion of bacteria with damaged cell membrane at 1X MIC incubated for 1 hr by PI staining based flow cytometric analysis (Rvb =0.7%); format: subcellular
Staphylococcus aureus [18] = assay: Synergistic antibacterial activity against MDR-methicillin-resistant Staphylococcus aureus ATCC BAA-44 assessed as fold change in chloramphenicol MIC by checkerboard assay; format: functional
Staphylococcus aureus [19] = assay: Additive antibacterial activity against MDR-methicillin-resistant Staphylococcus aureus ATCC BAA-44 assessed as fractional inhibitory concentration index in presence of rifampicin by checkerboard assay; format: functional
Staphylococcus aureus [20] = assay: Additive antibacterial activity against MDR-methicillin-resistant Staphylococcus aureus ATCC BAA-44 assessed as tetracycline MIC by checkerboard assay; format: functional
Staphylococcus aureus [21] = assay: Antibacterial activity against methicillin-resistant Staphylococcus aureus ATCC 33591 assessed as reduction in bacterial growth measured after 18 hrs by broth microdilution method; format: functional
Escherichia coli [22] = assay: Antibacterial activity against Escherichia coli ATCC 25922 assessed as reduction in bacterial growth measured after 18 hrs by broth microdilution method; format: functional
Erythrocyte = assay: Hemolytic activity against human RBC assessed as hemolysis upto 100 uM incubated for 1 hr by ELISA plate reader analysis; format: toxicity, cell-based
Staphylococcus aureus [23] = assay: Additive antibacterial activity against MDR-methicillin-resistant Staphylococcus aureus ATCC BAA-44 assessed as fold change in gentamicin MIC by checkerboard assay; format: functional
trypsin = trypsin (Homo sapiens, UniProt P07477+P07478+P35030); assay: Stability of compound assessed as trypsin (unknown origin)-mediated compound degradation by measuring parent compound remaining at 150 uM measured upto 4 hrs by RP-HPLC method; format: ADME, protein assay; details: read-out: Stability
Staphylococcus aureus [24] = assay: Additive antibacterial activity against MDR-methicillin-resistant Staphylococcus aureus ATCC BAA-44 assessed as fractional inhibitory concentration index in presence of gentamicin by checkerboard assay; format: functional
Escherichia coli [25] = assay: Antibacterial activity against Escherichia coli MRE600 assessed as reduction in bacterial growth measured after 18 hrs by broth microdilution method; format: functional
Staphylococcus aureus [26] = assay: Synergistic antibacterial activity against MDR-methicillin-resistant Staphylococcus aureus ATCC BAA-44 assessed as neomycin MIC by checkerboard assay; format: functional
Staphylococcus aureus [27] = assay: In vivo antibacterial activity against Staphylococcus aureus ATCC 25923 infected in BALB/c mouse model assessed as reduction of bacterial load in kidney at 5 mg/kg, ip administered as single dose measured after 24 hrs by colony counting based analysis (reference value: 2X10^4 CFU); format: functional
Staphylococcus aureus [28] = assay: In vivo antibacterial activity against Staphylococcus aureus ATCC 25923 infected in BALB/c mouse model assessed as reduction of bacterial load in liver at 5 mg/kg, ip administered as single dose measured after 24 hrs by colony counting based analysis (reference value: 8.1X10^4 CFU); format: functional

SMILES | fractional inhibitory concentration index (FICI) (Staphylococcus aureus [1]) | inhibition [2] | Ki (Bacterial 70S ribosome) [nM] | fold change (FC) (Staphylococcus aureus [3]) | MIC (Staphylococcus aureus [4]) [µg/mL] | Activity [5] | fold change (FC) (Staphylococcus aureus [6]) | MIC (Pseudomonas aeruginosa) [µM] | MIC (Acinetobacter baumannii) [µM] | MIC (Staphylococcus aureus [7]) [µM] | viability at 100 µM [8] [%] | fractional inhibitory concentration index (FICI) (Staphylococcus aureus [9]) | fold change (FC) (Staphylococcus aureus [10]) | Activity (Cell membrane [11]) [%] | MIC (Escherichia coli [12]) [µM] | fractional inhibitory concentration index (FICI) (Staphylococcus aureus [13]) | MIC [14] [µM] | fractional inhibitory concentration index (FICI) (Staphylococcus aureus [15]) | viability at 50 µM [16] [%] | Activity (Cell membrane [17]) [%] | also measured
CCCCCCCCCCCC(=O)N1CCC[C@H]1C(=O)N[C@@H](CCCNC(=N)N)C(=O)N1CCC[C@H]1C(=O)N[C@@H](CCCNC(=N)N)C(=O)N1CCC[C@H]1C(=O)N1CCC[C@H]1C(=O)N[C@@H](CCCNC(=N)N)C(=O)NCCCNCCCCNCCCN (Lauroyl-PRPRPPR-Spermine) | 0.312 | Active | 21.7 | 1.6 | 1.25 | Non-Toxic | 2 | 6.2 (≈ 7.7 µg/mL) | 6.2 (≈ 7.7 µg/mL) | 1.5 (≈ 1.86 µg/mL) | 65 | 0.625 | 2 | 92.9 | 3.1 | 0.5 | 1.5 (≈ 1.86 µg/mL) | 0.28 | 79 | 7.09 | fold change (FC) (Staphylococcus aureus [18]): 4; fractional inhibitory concentration index (FICI) (Staphylococcus aureus [19]): 1; MIC (Staphylococcus aureus [20]): 31.2 µg/mL; MIC (Staphylococcus aureus [21]): 1.5 µM (≈ 1.86 µg/mL); MIC (Escherichia coli [22]): 3.1 µM (≈ 3.85 µg/mL); Activity (Erythrocyte): Non-Toxic; fold change (FC) (Staphylococcus aureus [23]): 1; remaining at 4 h, 150 µM (trypsin): > 80%; fractional inhibitory concentration index (FICI) (Staphylococcus aureus [24]): 0.745; MIC (Escherichia coli [25]): 3.1 µM (≈ 3.85 µg/mL); MIC (Staphylococcus aureus [26]): 7.81 µg/mL; Activity (Staphylococcus aureus [27]): <4 10^2CFU; Activity (Staphylococcus aureus [28]): <4 10^2CFU
CCCCCCCCCC(=O)N1CCC[C@H]1C(=O)N[C@@H](CCCNC(=N)N)C(=O)N1CCC[C@H]1C(=O)N[C@@H](CCCNC(=N)N)C(=O)N1CCC[C@H]1C(=O)N1CCC[C@H]1C(=O)N[C@@H](CCCNC(=N)N)C(=O)NCCCNCCCCNCCCN (Decanoyl-PRPRPPR-Spermine) | 0.312 | Active | 33.8 | 1.6 | 1.25 | Non-Toxic | 2 | 6.2 (≈ 7.52 µg/mL) | 6.2 (≈ 7.52 µg/mL) | 3.1 (≈ 3.76 µg/mL) | 80 | 0.625 | 2 | 93.9 | 6.2 | 2 | 3.1 (≈ 3.76 µg/mL) | 0.313 | 94 | 6.11 | fold change (FC) (Staphylococcus aureus [18]): 1; fractional inhibitory concentration index (FICI) (Staphylococcus aureus [19]): 0.625; MIC (Staphylococcus aureus [20]): 31.2 µg/mL; MIC (Staphylococcus aureus [21]): 3.1 µM (≈ 3.76 µg/mL); MIC (Escherichia coli [22]): 3.1 µM (≈ 3.76 µg/mL); Activity (Erythrocyte): Non-Toxic; fold change (FC) (Staphylococcus aureus [23]): 2; remaining at 4 h, 150 µM (trypsin): > 80%; fractional inhibitory concentration index (FICI) (Staphylococcus aureus [24]): 0.745; MIC (Escherichia coli [25]): 3.1 µM (≈ 3.76 µg/mL); MIC (Staphylococcus aureus [26]): 7.81 µg/mL; Activity (Staphylococcus aureus [27]): <4 10^2CFU; Activity (Staphylococcus aureus [28]): <4 10^2CFU

Reference: ChEMBL document CHEMBL5154803, “Spermine-Conjugated Short Proline-Rich Lipopeptides as Broad-Spectrum Intracellular Targeting Antibacterial Agents” (J Med Chem, 2022)
